From PubChem BioAssay AID1963962 (Molecular Pharmacology Branch, DTP, NCI, 2024)
pIC50: −log10 of the molar value.

Test system: 967376-340-R-J2-PDC multicell spheroid viability
Assay: Anticancer human tumor 967376-340-R-J2-PDC patient-derived colon adenocarcinoma cell line growth inhibition [PI3K]
Conditions: for pIC50: curve of first compound; for viability, T/C: stronger effect = lower value
Procedure, shortened: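 Multi-cell spheroids combine tumor cells with HUVEC and human MSCs, treated with targeted agents alone or with inavolisib, alpelisib, duvelisib or copanlisib. Concentrations fall in half-log steps from at or near clinical Cmax, or from 10 microM where Cmax is unknown; viability read-out.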

[1] = second compound 0.0316 µM, first compound 0.000316 µM
[2] = second compound 0.0316 µM, first compound 0.001 µM
[3] = second compound 0.0316 µM, first compound 0.00316 µM
[4] = second compound 0.0316 µM, first compound 0.01 µM
[5] = second compound 0.0316 µM, first compound 0.0316 µM
[6] = second compound 0.0316 µM, first compound 0.1 µM
[7] = second compound 0.1 µM, first compound 0.000316 µM
[8] = second compound 0.1 µM, first compound 0.001 µM
[9] = second compound 0.1 µM, first compound 0.00316 µM
[10] = second compound 0.1 µM, first compound 0.01 µM
[11] = second compound 0.1 µM, first compound 0.0316 µM
[12] = second compound 0.1 µM, first compound 0.1 µM
[13] = second compound 0.316 µM, first compound 0.000316 µM
[14] = second compound 0.316 µM, first compound 0.001 µM
[15] = second compound 0.316 µM, first compound 0.00316 µM
[16] = second compound 0.316 µM, first compound 0.01 µM
[17] = second compound 0.316 µM, first compound 0.0316 µM
[18] = second compound 0.316 µM, first compound 0.1 µM
[19] = second compound 1 µM, first compound 0.000316 µM
[20] = second compound 1 µM, first compound 0.001 µM
[21] = second compound 1 µM, first compound 0.00316 µM
[22] = second compound 1 µM, first compound 0.01 µM
[23] = second compound 1 µM, first compound 0.0316 µM
[24] = second compound 1 µM, first compound 0.1 µM
[25] = second compound 3.16 µM, first compound 0.000316 µM
[26] = second compound 3.16 µM, first compound 0.001 µM
[27] = second compound 3.16 µM, first compound 0.00316 µM
[28] = second compound 3.16 µM, first compound 0.01 µM
[29] = second compound 3.16 µM, first compound 0.0316 µM
[30] = second compound 3.16 µM, first compound 0.1 µM
[31] = second compound 10 µM, first compound 0.000316 µM
[32] = second compound 10 µM, first compound 0.001 µM
[33] = second compound 10 µM, first compound 0.00316 µM
[34] = second compound 10 µM, first compound 0.01 µM
[35] = second compound 10 µM, first compound 0.0316 µM
[36] = second compound 10 µM, first compound 0.1 µM
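Further: spheroids exposed to agents for 7 days before read-out.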
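Wherever viability, T/C is given: luminescence used as surrogate of cell viability.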

CC(=O)c1c(C)c2cnc(Nc3ccc(N4CCNCC4)cn3)nc2n(C2CCCC2)c1=O + CC(Nc1ncnc2nc[nH]c12)c1cc2cccc(Cl)c2c(=O)n1-c1ccccc1
pIC50 (second compound 0.0316 µM): < 7.00
pIC50 (second compound 0.1 µM): < 7.00
pIC50 (second compound 0.316 µM): < 7.00
pIC50 (second compound 1 µM): < 7.00
pIC50 (second compound 3.16 µM): < 7.00
pIC50 (second compound 10 µM): < 7.00
viability, T/C [1]: 81.1%
viability, T/C [2]: 101%
viability, T/C [3]: 92.2%
viability, T/C [4]: 92.7%
viability, T/C [5]: 79.9%
viability, T/C [6]: 82.6%
viability, T/C [7]: 114%
viability, T/C [8]: 89.4%
viability, T/C [9]: 101%
viability, T/C [10]: 89.4%
viability, T/C [11]: 84.4%
viability, T/C [12]: 83.8%
viability, T/C [13]: 101%
viability, T/C [14]: 96%
viability, T/C [15]: 113%
viability, T/C [16]: 97%
viability, T/C [17]: 79.3%
viability, T/C [18]: 78.6%
viability, T/C [19]: 90%
viability, T/C [20]: 103%
viability, T/C [21]: 91%
viability, T/C [22]: 80.3%
viability, T/C [23]: 98.6%
viability, T/C [24]: 88.2%
viability, T/C [25]: 89.6%
viability, T/C [26]: 109%
viability, T/C [27]: 95.1%
viability, T/C [28]: 90.3%
viability, T/C [29]: 84.1%
viability, T/C [30]: 63.9%
viability, T/C [31]: 83.5%
viability, T/C [32]: 89.5%
viability, T/C [33]: 81.3%
viability, T/C [34]: 88%
viability, T/C [35]: 87.5%
viability, T/C [36]: 86.9%

CC(C)n1nc(-c2ccc3oc(N)nc3c2)c2c(N)ncnc21 + CC(Nc1ncnc2nc[nH]c12)c1cc2cccc(Cl)c2c(=O)n1-c1ccccc1
pIC50 (second compound 0.0316 µM): < 7.00
pIC50 (second compound 0.1 µM): < 7.00
pIC50 (second compound 0.316 µM): < 7.00
pIC50 (second compound 1 µM): < 7.00
pIC50 (second compound 3.16 µM): < 7.00
pIC50 (second compound 10 µM): < 7.00
viability, T/C [1]: 109%
viability, T/C [2]: 92.2%
viability, T/C [3]: 96.6%
viability, T/C [4]: 98.6%
viability, T/C [5]: 97.5%
viability, T/C [6]: 59.1%
viability, T/C [7]: 90.1%
viability, T/C [8]: 94.5%
viability, T/C [9]: 90.6%
viability, T/C [10]: 103%
viability, T/C [11]: 80.8%
viability, T/C [12]: 69.9%
viability, T/C [13]: 113%
viability, T/C [14]: 104%
viability, T/C [15]: 99.9%
viability, T/C [16]: 98.5%
viability, T/C [17]: 77%
viability, T/C [18]: 54.7%
viability, T/C [19]: 124%
viability, T/C [20]: 97%
viability, T/C [21]: 89.9%
viability, T/C [22]: 90.1%
viability, T/C [23]: 71%
viability, T/C [24]: 53%
viability, T/C [25]: 101%
viability, T/C [26]: 94.3%
viability, T/C [27]: 93.9%
viability, T/C [28]: 80.4%
viability, T/C [29]: 81.3%
viability, T/C [30]: 62.2%
viability, T/C [31]: 93%
viability, T/C [32]: 81.4%
viability, T/C [33]: 76.7%
viability, T/C [34]: 88%
viability, T/C [35]: 73.3%
viability, T/C [36]: 61.3%
